Test results as given in US20250154169A1, “COMPOUNDS AND METHODS FOR MODULATING SPLICING” (REMIX THERAPEUTICS INC., priority 2021, published 2025).
Values joined by “and” are separate entries in the source; they are usually repeats but may differ in a detail not shown here. Identical values can stand only once. Like-named read-outs stand apart in the source and are kept apart here.

Columns and labels:
HTT mRNA [1] = test: Splicing RT-qPCR assay, HTT canonical (CJ) and alternative (AJ) junction mRNA; type: cell-based, human; conditions: Homo sapiens
How it was run: (§1)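 Canonical (CJ) and alternative-exon (AJ) junction mRNAs quantified by one-step RT-qPCR in cell lysates, normalized to housekeeping PPIA for A673 and GAPDH or GUSB for K562. Cells were exposed 24 h at 37 °C to 11-point 3-fold compound series from 10 uM final, with DMSO at or below 0.25%.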

MYB mRNA = test: Splicing RT-qPCR assay, MYB canonical (CJ) and alternative (AJ) junction mRNA; type: cell-based, human; conditions: Homo sapiens
How it was run: as §1

SMN2 mRNA = test: Splicing RT-qPCR gene panel, SMN2 canonical junction (CJ) mRNA; type: cell-based, human; conditions: Homo sapiens, Tables 4A/4B, read-out: SMN2 (IC50, decrease in CJ mRNA, gene panel)
How it was run: (§2)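 Read-out: RT-qPCR of the canonical exon-exon junction transcript, ΔCt vs housekeeping gene, normalized to DMSO, RQ = 2^(−ΔΔCt), converted to percentage response. Cells, A673 or K562, were dosed 24 h at 37 °C across 11 3-fold dilutions from 10 uM.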

Target C mRNA = test: Splicing RT-qPCR gene panel, Target C canonical junction (CJ) mRNA; type: cell-based, human; conditions: Homo sapiens, Tables 4A/4B, read-out: Target C (IC50, decrease in CJ mRNA, gene panel)
How it was run: as §2

HTT mRNA [2] = test: Splicing RT-qPCR gene panel, HTT canonical junction (CJ) mRNA; type: cell-based, human; conditions: Homo sapiens, Tables 4A/4B, read-out: HTT (IC50, decrease in CJ mRNA, gene panel)
How it was run: as §2

K562 cells = test: Cell Titer Glo 2.0 cell viability assay, K562; type: cell-based; conditions: Homo sapiens, 72 hours incubation
Experimental: Compounds described herein were screened for toxicity in K562 (human chronic myelogenous leukemia) and SH-SY5Y (human neuroblastoma) cells using a Cell Titer Glo 2.0 assay.
• Promega CellTiter-Glo® 2.0 Cell Viability Assay (cat #G9241) • Corning 384-well TC-treated microplates (cat #3570)
Cells were plated at 500 cells/well (K562 cells) in 45 μL of IMDM supplemented with 10% FBS in a 384-well opaque plate. Wells containing only medium were used as a blank control. Test compounds (e.g., compounds of Formula (I) or (II)) were first serially diluted in DMSO then diluted 1:100 with EIDM+10% FBS. The final concentration of DMSO was 0.1% in each well. The cells were incubated for 72 hours at 37° C. and 5% CO2 before assaying with Cell Titer Glo 2.0 reagent.

MYB = test: Protein abundance, HiBit-assay system (Promega), MYB; type: cell-based; conditions: Table 6; HiBiT-modified K562 cells, 24 hours
Text: In some embodiments, a compound of Formula (I) or (II) or a pharmaceutically acceptable salt thereof, e.g., as described herein, modulates the expression of a target protein (e.g., HTT or MYB) in a reference cell or sample. In an embodiment, a compound of Formula (I) or (II) or a pharmaceutically acceptable salt thereof, e.g., as described herein, increases the expression of a target protein (e.g., HTT or MYB) in a reference cell or sample. In an embodiment, a compound of Formula (I) or (II) or a pharmaceutically acceptable salt thereof, e.g., as described herein, decreases the expression of a target protein (e.g., HTT or MYB) in a reference cell or sample. The effect of an exemplary compound of Formula (I) or (II) on protein abundance may be measured using a standard assay for measuring protein abundance, such as the HiBit-assay system (Promega). In this assay, percent response for each respective cell line may be as calculated at each compound concentration as follows: % response=100*(S−PC)/(NC−PC). For the normalized response at each concentration, a four-parameter logistical regression may be fit to the data and the response may be interpolated at the 50% value to determine a concentration for protein abundance at 50% (IC50) an untreated control. In an embodiment, a compound of Formula (I) or (II) or a pharmaceutically acceptable salt thereof, e.g., as described herein, has a protein abundance response less than 100 nM. In an embodiment, a compound of Formula (I) or (II) or a pharmaceutically acceptable salt thereof, e.g., as described herein, has a protein abundance response between 100-1000 nM. In an embodiment, a compound of Formula (I) or (II) or a pharmaceutically acceptable salt thereof, e.g., as described herein, has a protein abundance response greater than 1000 nM. In an embodiment, a compound of Formula (I) or (II) or a pharmaceutically acceptable salt thereof, e.g., as described herein, has a protein abundance response greater than 10 uM. In an embodiment, a compound of Formula (I) or (II) or a pharmaceutically acceptable salt thereof, e.g., as described herein, modulates the protein abundance of a target protein by about 1%, 5%, 10%, 15%, 20%, 25%, 30%, 35%, 40%, 45%, 50%, 55%, 60%, 65%, 70%, 75%, 80%, 85%, 90%, 95%, 99% or more, e.g., compared with a reference compound.

[3] = 24 h, A673 or K562 cells, 24 hours compound treatment, read-out: HTT CJ (IC50, decrease in canonical junction mRNA)
[4] = A673 or K562 cells, 24 hours compound treatment, read-out: HTT AJ (AC50, increase in alternative junction mRNA)
[5] = 24 h, A673 or K562 cells, 24 hours compound treatment, RT-qPCR, read-out: MYB AJ (AC50, increase in alternative junction mRNA)
[6] = 24 h, A673 or K562 cells, 24 hours compound treatment, RT-qPCR, read-out: MYB CJ (IC50, decrease in canonical junction mRNA)
[7] = Tables 4A/4B, canonical junction qPCR panel, read-out: MYB (IC50, decrease in CJ mRNA, gene panel)

| IC50 (HTT mRNA [1]; [3]) [nM] | IC50 (MYB mRNA; [6]) [nM] | IC50 (MYB mRNA; [7]) [nM] | IC50 (SMN2 mRNA) [nM] | IC50 (Target C mRNA) [nM] | IC50 (HTT mRNA [2]) [nM] | IC50 (MYB) | IC50 (HTT mRNA [1]; Table 3B, canonical junction mRNA, read-out: HTT CJ (IC50, decrease in CJ mRNA)) [nM] | IC50 (MYB mRNA; Table 3B, canonical junction mRNA, RT-qPCR, read-out: MYB CJ (IC50, decrease in CJ mRNA)) [nM] | Compound | AC50 (HTT mRNA [1]; [4]) [nM] | AC50 (MYB mRNA; [5]) [nM] | GI50 (K562 cells) [nM] | AC50 (HTT mRNA [1]; Table 3B, alternative junction mRNA, read-out: HTT AJ (AC50, increase in AJ mRNA)) [nM] | AC50 (MYB mRNA; Table 3B, alternative junction mRNA, RT-qPCR, read-out: MYB AJ (AC50, increase in AJ mRNA)) [nM] |
| --- | --- | --- | --- | --- | --- | --- | --- | --- | --- | --- | --- | --- | --- | --- |
| – | – | 100 to 1000 | < 100 | 1000 to 10000 | 100 to 1000 | 100 to 1000 nM and < 100 nM | – | – | Cc1cn2cc(NC(=O)c3ccc(C4CCNCC4)c4oc(C)nc34)cc(F)c2n1 [Compound 187] | – | – | 100 to 1000 | – | – |
| > 10000 | 1000 to 10000 | > 10000 | > 10000 | > 10000 | > 10000 | – | – | – | Cc1cn2cc(NC(=O)c3ccc(N4CCNCC4)c4cn(C)nc34)c(=O)n(C)c2n1 [Compound 451, N-{2,8-dimethyl-7-oxoimidazo[1,2-a]pyrimidin-6-yl}-2-methyl-4-(piperazin-1-yl) indazole-7-carboxamide] | > 10000 | 1000 to 10000 | – | – | – |
| – | – | < 100 | < 100 | 100 to 1000 | 100 to 1000 | – | 100 to 1000 | < 100 | Cc1cn2cc(NC(=O)c3ccc(N4C[C@@H](C)N[C@@H](C)C4)c4csnc34)cc(F)c2n1 [Compound 971] | – | – | – | 100 to 1000 | < 100 |
| < 100 | < 100 | > 10000 | > 10000 | > 10000 | > 10000 | – | – | – | Cc1nc2c(F)cc(NC(=O)c3ccc(N4CCNCC4)c4cn(C)nc34)cn2c1C [Compound 458, N-{8-fluoro-2,3-dimethylimidazo[1,2-a]pyridin-6-yl}-2-methyl-4-(piperazin-1-yl) indazole-7-carboxamide] | 100 to 1000 | < 100 | – | – | – |

| Compound | IC50 (HTT mRNA [1]; [3]) [nM] | IC50 (MYB mRNA; [6]) [nM] | IC50 (MYB mRNA; [7]) [nM] | IC50 (SMN2 mRNA) [nM] | IC50 (Target C mRNA) [nM] | IC50 (HTT mRNA [2]) [nM] | IC50 (MYB) | IC50 (HTT mRNA [1]; Table 3B, canonical junction mRNA, read-out: HTT CJ (IC50, decrease in CJ mRNA)) [nM] | IC50 (MYB mRNA; Table 3B, canonical junction mRNA, RT-qPCR, read-out: MYB CJ (IC50, decrease in CJ mRNA)) [nM] | AC50 (HTT mRNA [1]; [4]) [nM] | AC50 (MYB mRNA; [5]) [nM] | GI50 (K562 cells) [nM] | AC50 (HTT mRNA [1]; Table 3B, alternative junction mRNA, read-out: HTT AJ (AC50, increase in AJ mRNA)) [nM] | AC50 (MYB mRNA; Table 3B, alternative junction mRNA, RT-qPCR, read-out: MYB AJ (AC50, increase in AJ mRNA)) [nM] |
| --- | --- | --- | --- | --- | --- | --- | --- | --- | --- | --- | --- | --- | --- | --- |
| Cc1cn2cc(NC(=O)c3ccc(N(C)C4CCN(C)CC4)c4cc(C)oc34)cc(F)c2n1 [Compound 200] | 1000 to 10000 | 1000 to 10000 | 1000 to 10000 | < 100 | 1000 to 10000 | 1000 to 10000 | – | – | – | 1000 to 10000 | 1000 to 10000 | 1000 to 10000 | – | – |
